Laboratory results taken from patent US20250228832A1, “METHODS FOR TREATING DISORDERS AMELIORATED BY MUSCARINIC RECEPTOR ACTIVATION” (KARUNA THERAPEUTICS, INC., priority 2022, published 2025).
pEC50: −log10 of the molar value. Where two headings read alike, the source gives them in different places.

What was measured:
human M2 receptor = biological target: T1, human M2 receptor (Homo sapiens, UniProt P08172); assay: SPA GTP (GTPgS) binding curve shift assay, M2; format: biochemical; conditions: M2
T1 sequence (P08172 1-466): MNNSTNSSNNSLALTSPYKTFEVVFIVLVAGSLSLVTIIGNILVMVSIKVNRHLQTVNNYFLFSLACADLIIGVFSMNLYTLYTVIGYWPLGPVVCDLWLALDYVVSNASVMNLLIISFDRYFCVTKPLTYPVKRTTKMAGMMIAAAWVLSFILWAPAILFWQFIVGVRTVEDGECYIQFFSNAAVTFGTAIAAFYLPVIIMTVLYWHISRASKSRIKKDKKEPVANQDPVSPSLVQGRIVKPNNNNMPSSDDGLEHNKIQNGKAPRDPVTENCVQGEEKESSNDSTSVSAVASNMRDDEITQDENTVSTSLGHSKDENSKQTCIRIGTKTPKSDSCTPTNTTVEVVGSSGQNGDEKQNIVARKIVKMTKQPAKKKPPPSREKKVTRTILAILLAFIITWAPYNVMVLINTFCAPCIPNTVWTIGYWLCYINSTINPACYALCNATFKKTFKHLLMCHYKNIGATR
Protocol: (§1) Membranes were prepared for GTPgS binding assays from CHO-K1 cells stably expressing human M2 or human M4 receptors. Cells were grown in 5-layer cell culture flasks. Cells were washed with 50 mL of PBS and then dissociated with 0.05% trypsin. Dissociated cells were then collected by centrifugation at 650×g for 8 min at 4° C. Pellets were rewashed in PBS by centrifugation and resuspended in 30 mL of 20 mM HEPES, 10 mM EDTA, pH 7.4. After sitting on ice for 30 min, membranes were collected by centrifugation at 50000×g for 15 min at 4° C., resuspended in 30 mL of 20 mM HEPES, 0.1 mM EDTA, pH 7.4, and collected again by centrifugation. Pellets were then washed twice by centrifugation in 30 mL of 20 mM HEPES, pH 7.4, and stored at −80° C. until the day of the assay. On the day of the assay, pellets were thawed on ice and resuspended in 1 mL of 20 mM HEPES, pH 7.4, 10 mM MgCl2, and 100 mM NaCl using Dounce homogenization.
(§2) According to Promega guidelines, membrane protein concentration was determined by BCA protein assay (Promega, Madison, WI).
(§3) On the day of the assay, serial dilutions of test PAM compounds were brought up in assay buffer (20 mM HEPES, 10 mM MgCl2; see Table 4 for NaCl concentrations) at four times the final assay concentration. […] of membrane homogenates (containing […] of membrane protein) were prepared in assay buffer supplemented with GDP at 4× final assay concentration (see Table 4 for GDP concentrations) and dispensed into 96 well polypropylene, U-bottom Greiner plates. Membrane plates were incubated for 10 min at room temperature with gentle shaking. Then, 25 μL of test compounds were added to assay plates. Plates were then incubated, with shaking, for an additional 10-15 min. Then, 25 μL of diluted agonists serially diluted in assay buffer at 4× final assay concentration was added to assay plates. Plates were then incubated, with shaking, for an additional 10-15 min. Next, […] of 0.4 nM ^35S-GTP (Perkin Elmer, Waltham, MA) in assay buffer was added to assay mixtures. The binding reaction was left on the shaker for 1 h at room temperature. Membranes in assay reactions were then transferred to GF/C filter plates (UniFilter, Perkin Elmer) and washed three times using FilterMate Harvester (Perkin Elmer) with cold assay buffer containing no GDP. Filter plates were then dried at 40° C. overnight, and […] of Beta Plate Scintillation liquid was added. Plates were top and bottom sealed before being read on the TopCount scintillation counter (Perkin Elmer, Waltham, MA).
(§4) Raw data for all assays was transmitted directly from plate readers into the Beacon database for processing. All assay plates contained positive and negative control wells for data normalization and scaling. […] All control wells contained DMSO at a final assay concentration that matched the test compound wells.
(§5) For GTPgS assays, the negative control wells were defined as 0% response. The highest response in a plate was scaled to 1, representing 100% response. Data from test compound wells was scaled to these controls and are reported as % control values. This was done to allow for subsequent GraphPad cooperativity analysis, setting the maximal response at no more than 1.

human M4 receptor = biological target: T2, human M4 receptor (Homo sapiens, UniProt P08173); assay: SPA GTP (GTPgS) binding curve shift assay, M4; format: biochemical
T2 construct: expressed in transfected cells
T2 sequence (P08173 1-479): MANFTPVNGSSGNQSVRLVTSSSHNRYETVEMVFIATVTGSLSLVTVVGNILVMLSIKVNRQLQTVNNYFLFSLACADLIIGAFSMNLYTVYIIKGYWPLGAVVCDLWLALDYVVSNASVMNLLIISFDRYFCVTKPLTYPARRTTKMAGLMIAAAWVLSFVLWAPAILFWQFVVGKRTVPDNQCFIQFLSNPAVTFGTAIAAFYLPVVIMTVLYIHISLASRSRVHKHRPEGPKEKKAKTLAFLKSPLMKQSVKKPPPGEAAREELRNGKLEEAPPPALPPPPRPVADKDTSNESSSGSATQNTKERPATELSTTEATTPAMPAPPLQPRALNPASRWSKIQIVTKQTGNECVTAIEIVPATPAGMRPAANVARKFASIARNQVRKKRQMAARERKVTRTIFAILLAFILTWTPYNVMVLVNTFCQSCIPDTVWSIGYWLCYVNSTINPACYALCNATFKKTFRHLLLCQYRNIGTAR
Protocol: as §1, §2, §3, §4, §5

[1] = Emraclidine concentration 41.2 nM, read-out: Emax
[2] = Emraclidine concentration 123 nM, read-out: Emax
[3] = Emraclidine concentration 370 nM
[4] = Emraclidine concentration 1110 nM, read-out: Emax
[5] = Emraclidine concentration 3330 nM, read-out: Emax
[6] = MK-4710 concentration 41.2 nM, read-out: Emax
[7] = MK-4710 concentration 123 nM, read-out: Emax
[8] = MK-4710 concentration 1110 nM, read-out: Emax
[9] = MK-4710 concentration 3330 nM, read-out: Emax

## CCCCCCCOc1nsnc1C1=CCCCN1C [KTX-593, 3-(heptyloxy)-4-(1-methyl-1,4,5,6-tetrahydropyridin-2-yl)-1,2,5-thiadiazole]
Human M2 receptor; Emraclidine concentration 0 nM
  pEC50: 7.45
  Emax: 39.8%
Human M2 receptor; [1]
  Emax: 52.6%
Human M2 receptor; [2]
  Emax: 52.2%
Human M2 receptor; [3]
  Emax at […]: 50.1%
Human M2 receptor; [4]
  Emax: 67.5%
Human M2 receptor; [5]
  Emax: 75.1%
Human M2 receptor; Emraclidine concentration […]
  Emax at […]: 48.7%
Human M2 receptor; M4 PAM Emraclidine
  α (cooperativity, affinity shift): 1.0
  β (cooperativity, efficacy shift): 1370.0
  τ (agonist pharmacology): 1.6
Human M2 receptor; M4 PAM MK-4710
  α (cooperativity, affinity shift): 1.0
  β (cooperativity, efficacy shift): 10.3
  τ (agonist pharmacology): 0.0
Human M2 receptor; MK-4710 concentration 0 nM
  pEC50: 7.71
  Emax: 38.7%
Human M2 receptor; [6]
  Emax: 50.1%
Human M2 receptor; [7]
  Emax: 50.2%
Human M2 receptor; MK-4710 concentration 370 nM
  Emax at […]: 61.4%
Human M2 receptor; [8]
  Emax: 62.2%
Human M2 receptor; [9]
  Emax: 77.6%
Human M2 receptor; MK-4710 concentration […]
  Emax at […]: 57%
Human M4 receptor; Emraclidine concentration 0 nM
  pEC50: 7.90
  Emax: 14.3%
Human M4 receptor; [1]
  Emax: 24.5%
Human M4 receptor; [2]
  Emax: 43.9%
Human M4 receptor; [3]
  Emax at […]: 60.1%
Human M4 receptor; [4]
  Emax: 76.8%
Human M4 receptor; [5]
  Emax: 84%
Human M4 receptor; Emraclidine concentration […]
  Emax at […]: 24.2%
Human M4 receptor; M4 PAM Emraclidine
  α (cooperativity, affinity shift): 2.4
  β (cooperativity, efficacy shift): 56.3
  τ (agonist pharmacology): 1.5
Human M4 receptor; M4 PAM MK-4710
  α (cooperativity, affinity shift): 1.0
  β (cooperativity, efficacy shift): 1051018.0
  τ (agonist pharmacology): 381.2
Human M4 receptor; MK-4710 concentration 0 nM
  pEC50: 7.35
  Emax: 14.0%
Human M4 receptor; [6]
  Emax: 35.9%
Human M4 receptor; [7]
  Emax: 41.8%
Human M4 receptor; MK-4710 concentration 370 nM
  Emax at […]: 59.7%
Human M4 receptor; [8]
  Emax: 80%
Human M4 receptor; [9]
  Emax: 88.1%
Human M4 receptor; MK-4710 concentration […]
  Emax at […]: 26%

## CCCCCOc1nsnc1C1=CCCCN1C [KTX-517, 3-(1-methyl-1,4,5,6-tetrahydropyridin-2-yl)-4-(pentyloxy)-1,2,5-thiadiazole]
Human M2 receptor; Emraclidine concentration 0 nM
  pEC50: 7.73
  Emax: 35.6%
Human M2 receptor; [1]
  Emax: 57.9%
Human M2 receptor; [2]
  Emax: 51.1%
Human M2 receptor; [3]
  Emax at […]: 52.6%
Human M2 receptor; [4]
  Emax: 65.9%
Human M2 receptor; [5]
  Emax: 79.2%
Human M2 receptor; Emraclidine concentration […]
  Emax at […]: 44.8%
Human M2 receptor; M4 PAM Emraclidine
  α (cooperativity, affinity shift): 1.0
  β (cooperativity, efficacy shift): 18.1
  τ (agonist pharmacology): 0.1
Human M2 receptor; M4 PAM MK-4710
  α (cooperativity, affinity shift): 1.0
  β (cooperativity, efficacy shift): 5.0
  τ (agonist pharmacology): 0.1
Human M2 receptor; MK-4710 concentration 0 nM
  pEC50: 7.84
  Emax: 45.1%
Human M2 receptor; MK-4710 concentration 41.2 nM
  pEC50: 7.92
Human M2 receptor; [6]
  Emax: 53.2%
Human M2 receptor; MK-4710 concentration 123 nM
  pEC50: 7.83
Human M2 receptor; [7]
  Emax: 55.6%
Human M2 receptor; MK-4710 concentration 370 nM
  pEC50: 7.88
  Emax at […]: 59.1%
Human M2 receptor; MK-4710 concentration 1110 nM
  pEC50: 7.80
Human M2 receptor; [8]
  Emax: 70.6%
Human M2 receptor; MK-4710 concentration 3330 nM
  pEC50: 7.99
Human M2 receptor; [9]
  Emax: 78.7%
Human M2 receptor; MK-4710 concentration […]
  pEC50: 7.59
  Emax at […]: 60.6%
Human M4 receptor; Emraclidine concentration 0 nM
  pEC50: 8.80
  Emax: 2.6%
Human M4 receptor; [1]
  Emax: 17.8%
Human M4 receptor; [2]
  Emax: 29.6%
Human M4 receptor; [3]
  Emax at […]: 46.5%
Human M4 receptor; [4]
  Emax: 62.4%
Human M4 receptor; [5]
  Emax: 66.8%
Human M4 receptor; Emraclidine concentration […]
  Emax at […]: 10.6%
Human M4 receptor; M4 PAM Emraclidine
  α (cooperativity, affinity shift): 3.0
  β (cooperativity, efficacy shift): 32.3
  τ (agonist pharmacology): 0.6
Human M4 receptor; M4 PAM MK-4710
  α (cooperativity, affinity shift): 1.0
  β (cooperativity, efficacy shift): 1395.0
  τ (agonist pharmacology): 0.8
Human M4 receptor; MK-4710 concentration 0 nM
  pEC50: 6.26
  Emax: 12.6%
Human M4 receptor; MK-4710 concentration 41.2 nM
  pEC50: 8.64
Human M4 receptor; [6]
  Emax: 27.3%
Human M4 receptor; MK-4710 concentration 123 nM
  pEC50: 8.85
Human M4 receptor; [7]
  Emax: 34.3%
Human M4 receptor; MK-4710 concentration 370 nM
  pEC50: 8.68
  Emax at […]: 53.4%
Human M4 receptor; MK-4710 concentration 1110 nM
  pEC50: 8.64
Human M4 receptor; [8]
  Emax: 75.1%
Human M4 receptor; MK-4710 concentration 3330 nM
  pEC50: 8.82
Human M4 receptor; [9]
  Emax: 87.1%
Human M4 receptor; MK-4710 concentration […]
  pEC50: 8.06
  Emax at […]: 20.4%
